Results: US20240075050A1, “Methods and Compositions for Treating Leucine Rich Repeat Kinase 2 (LRRK2)-Associated Disorder or Condition” (University of Connecticut, priority 2022, published 2024)

Experiments:
[1] = system: mouse primary cortical neurons; assay: Primary neuronal viability assay, LRRK2-induced neuronal toxicity; format: cell-based; details: 1 mM AICAr
Description: Primary neuronal cultures and viability assay. Primary cortical neuronal cultures were prepared from embryonic day 15-16 CD1 fetal mice (Charles River)^1. Briefly, cortices were dissected and dissociated by Trypsin (Invitrogen). The cells were seeded into 24-well plates pre-coated with poly-L-ornithine (Sigma) and were maintained in Neurobasal medium (Gibco) supplemented with B27 supplement (Gibco) and L-glutamine. The glial cells were inhibited by adding 5-fluoro-20-deoxyuridine (5F2DU, 30 μM, Sigma) at days in vitro (DIV) 4. To assess ATIC in LRRK2-induced toxicity, neurons were first infected with lentiviruses of ATIC-shRNA #6 or control-shRNA at DIV 3, and MYC-LRRK2, […] were co-transfected at a plasmid ratio of 10:1 into neurons at DIV 5 using Lipofectamine 2000 reagent (Invitrogen). […] Fixed cells are washed with PBS, permeabilized and blocked for 1 hour with PBS containing 5% goat serum and 0.3% Triton X-100, then detected with rabbit anti-GFP antibody followed by AlexaFluor-488 anti-rabbit IgG antibody. […] For each independent experiment, the percent viability of GFP-positive neurons (n>100) was determined and normalized to the control neurons transfected with pEGFP-N1 plus pcDNA3.1 empty vector.

[2] = system: LRRK2; assay: Endogenous LRRK2 levels in SH-SY5Y cells, Western blot; format: cell-based, human
[3] = system: DCP1A; assay: DCP1A expression levels in SH-SY5Y cells, Western blot; format: cell-based, human; details: 1 mM, 48 hours
Description: (§1) FIGS. 6A-6E depict that the decapping enzyme complex DCP1/2 is involved in LRRK2 mRNA decay. FIGS. 6A and 6B depict the DCP1A and DCP2 expression levels upon AICAr treatment. SH-SY5Y cells were treated with or without 1 mM AICAr for 48 hours. DCP1A and DCP2 expression levels were analyzed by Western blot. Images were quantified by ImageJ software. Data are mean±SEM, n=3 independent experiments. **p<0.01 by Student's t tests. FIGS. 6C and 6D depict the LRRK2 expression levels upon DCP1A or DCP2 overexpression. SH-SY5Y cells were transduced with lentiviruses carrying Flag-DCP1A or Flag-DCP2 for 48 hours. LRRK2 expression levels were analyzed by Western blot. Images were quantified by ImageJ software. Data are mean±SEM, n=3 independent experiments. *p<0.05 by Student's t tests. FIG. 6E depict LRRK2 mRNA decapping by DCP1A and DCP2. Recombinant DCP1A and DCP2 proteins were purified from HEK 293T cells and incubated with [α-32P]cap-labeled LRRK2 RNA. LRRK2 mRNA decapping was analyzed by one-dimensional thin layer chromatography.

[4] = system: DCP2; assay: DCP2 expression levels in SH-SY5Y cells, Western blot; format: cell-based, human; details: 1 mM, 48 hours
Description: as §1

[5] = system: DA neurons in substantia nigra pars compacta; assay: LPS-induced DA neurodegeneration in mice, TH-positive neurons in SNpc; format: in vivo, mouse; details: 21 days
Description: Stereotaxic intracranial injection. Three days before survival surgery, osmotic pumps (ALZET, 1004) were filled with saline, 1 mg/ml or 30 mg/ml AICAr in saline, assembled with brain infusion kits (ALZET, Brain Infusion Kit 2), and incubated in saline at 37° C. 3-month-old mice were anesthetized by isoflurane gas supplemented with 0.5 L/min oxygen. A ˜1.5 cm incision was made midline on the scalp. For mouse striatum injection, one hole was drilled at the following coordinates: anterioposterior=+0.5 mm from bregma; lateral=−2.0 mm from bregma; dorsoventral=−3.5 mm. For mouse substantia nigra pars compacta (SNpc) injection, one hole was drilled at the following coordinates: anterioposterior=−3.2 mm from bregma; lateral=−1.2 mm from bregma; dorsoventral=−4.2 mm. 1 ul LPS (5 ug) or PBS was injected at a rate of 0.2 ul/min using a Hamilton syringe with a 26-gauge blunt needle. […]
Immunohistochemistry. […] After antigen retrieval with 10 mM sodium citrate (pH 6.0) and 0.05% Tween-20 at 37° C. for 30 minutes, brain sections were washed in PBS for three times, permeabilized with 0.3% Triton X-100 in PBS, blocked with 10% goat serum in PBS, incubated with anti-tyrosine hydroxylase (TH) antibody overnight at 4° C., and then detected with Biotin-SP goat anti-rabbit IgG antibody at room temperature for 2 hours. […]
Stereological cell counting. […] Total cells were counted from 8 serial sections per animal.

NC(=O)c1ncn([C@@H]2O[C@H](CO)[C@@H](O)[C@H]2O)c1N [AICAr, 5-aminoimidazole-4-carboxamide riboside]
LRRK2 GS mutant induced neuronal toxicity ([1]; mouse primary neurons transfected with MYC-LRRK2 G2019S and eGFP): significantly rescued
overexpression of LRRK2-WT induced neuronal toxicity ([1]; mouse primary neurons transfected with MYC-LRRK2 WT and eGFP): significantly rescued
LRRK2 level, time and dose course ([2]; 1 mM, 24h-48h treatment): suppressed LRRK2 level dramatically
LRRK2 protein levels in AUF1-KO cells ([2]; SH-SY5Y AUF1-KO cells, 1 mM, 48 hours): largely attenuated effects
AICAr effects on LRRK2 in AUF1 KO cells with stable AUF1-GFP expression ([2]; SH-SY5Y AUF1 KO, AUF1-GFP expressed back, 1 mM, 48 hours): significantly rescued AICAr effects
effects on LRRK2 protein levels in WT versus AMPK KO cell line ([2]; SH-SY5Y WT and AMPK KO, 1 mM, 48 hours): similar
endogenous LRRK2 levels ([2]; SH-SY5Y cells, 1 mM, 48 hours): decreased
LRRK2 protein levels despite MG132 or CQ ([2]; SH-SY5Y, 1 mM AICAr with 0.35 μM MG132 or 5 μM CQ, 48 hours): still largely reduced
endogenous levels of DCP1A [3]: significantly increased
endogenous levels of DCP2 [4]: significantly increased
LPS-induced neurodegeneration ([5]; LRRK2 KO mice, AICAr 2.4 μg/day/animal into SNpc): did not significantly rescue
LPS-induced DA neurodegeneration ([5]; WT mice, AICAr 2.4 μg/day/animal into SNpc by osmotic pumps): significantly reduced
